One series addresses T1, PGE2 receptor 1 (EP1) (Homo sapiens, UniProt P34995).
T1 sequence (P34995 1-402): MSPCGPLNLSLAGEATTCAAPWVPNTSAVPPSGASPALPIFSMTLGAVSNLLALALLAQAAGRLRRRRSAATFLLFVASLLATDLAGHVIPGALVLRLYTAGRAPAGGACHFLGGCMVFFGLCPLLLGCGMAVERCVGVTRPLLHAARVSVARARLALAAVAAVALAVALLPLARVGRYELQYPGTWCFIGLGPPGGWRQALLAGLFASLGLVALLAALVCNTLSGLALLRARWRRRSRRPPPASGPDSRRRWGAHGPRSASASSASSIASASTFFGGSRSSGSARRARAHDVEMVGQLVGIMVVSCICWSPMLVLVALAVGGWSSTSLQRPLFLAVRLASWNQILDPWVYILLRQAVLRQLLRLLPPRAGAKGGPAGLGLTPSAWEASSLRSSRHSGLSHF
The experiment in a line: EP1 receptor calcium agonist assay (HEK293T cells). It counts as cell-based. As to conditions: Table 22; relative to treprostinil EC50 values; * partial agonists or ambiguous dose-response curves. As to the method: Calcium assay kit: Multiscreen™ Calcium 1.0 No Wash Kit (Multispan, Inc., Cat #MSCA01-1)
• EP1 Calcium and DP1 cAMP Assays: HBSS plus 20 mM HEPES • EP2 and IP1 cAMP Assays: 1 mM IBMX in HBSS plus 20 mM HEPES Instruments: FlexStation III (Molecular Devices) and FLIPR 384 (Molecular Devices)
Cells were thawed from frozen cells and resuspended in assay buffer at desired concentrations. cAMP or Calcium assays were performed according to the manufacturer's protocol using Multiscreen™ TR-FRET cAMP 1.0 No Wash Assay Kit or Multiscreen™ Calcium 1.0 No Wash Kit.
Calcium Assay: Cells were seeded in a 384-well plate at an appropriate density. The calcium assay was conducted according to the manufacturer's protocols (Multiscreen Calcium 1.0 No Wash Assay Kit). The calcium dye loading buffer was added to the cells and incubated for 1 hour at 37° C. For agonist mode, cells were injected with Iloprost control agonist or test compound by FLIPR and calcium mobilization was monitored for 180 seconds with compound injected into the wells at the 19th second. Fluorescent emissions were read at 525 nm with excitation at 490 nm in a FLIPR 384 instrument (Molecular Devices).
Calcium Assay: Calcium assay results are expressed as “RFU” as defined in figure below. Data are represented in Mean±SEM. Dose-response curves were fitted using “Sigmoidal dose-response (variable slope)” function in GraphPad Prism 6. EC50 values were calculated based on the fitted curves.
Prostaglandin receptor activity assessments with treprostinil and treprostinil analogues have been conducted, and a historical, positive control agonist for these receptors, iloprost (for IP, EP2 and EP1) or PGD2 (for DP1), was also included. These studies used cell lines overexpressing either human IP, EP2 or DP1, or EP1 receptors, and following incubation with varying concentrations of compounds, cAMP levels were measured using Fluorescence Resonance Energy Transfer (FRET). The 665/620 (acceptor/donor emission signals) ratio is inversely proportional to the concentration of cAMP.

Series [1] can be described thus: Plasma stability, human plasma. It counts as in vitro ADME. As to the method: (§1) Studies were carried out in mixed-gender human plasma male Sprague-Dawley rat plasma, and male Beagle dog plasma. All plasma was obtained from Bioreclamation and collected on K2EDTA. Plasma was adjusted to pH 7.4 prior to initiating the experiments. DMSO stocks were first prepared for the test articles. […] The vials were kept in a benchtop Thermomixer® for the duration of the experiment. […] Samples were stored at 4° C. until the end of the experiment. After the final time point was sampled, the plate was mixed and then centrifuged at 3000 rpm for 10 minutes.

Series [2] can be described thus: Plasma stability, rat plasma. It counts as in vitro ADME, Sprague-Dawley rat. As to the method:
as §1

Series [3] in a line: Plasma stability, dog plasma. It counts as in vitro ADME, Beagle dog. Here is the method:
as §1

A short description of series [4]: Hydrolysis of prodrugs to treprostinil at pH 6, 7, 8 and 40 C. In kind it is physicochemical. The source says:
Tables 24, 25 and 26 present data for hydrolysis of selected treprostinil prodrugs at pH 6, 7 and 8, respectively, and 40 C.

For series [5] the following is noted: rat.

With `CCCCCC(CCC1C(O)CC2Cc3c(cccc3OCC(=O)O)CC21)OC(C)=O` (stereo not drawn) [Prodrug XLIII], the “EP1 Relative to Tre” value on PGE2 receptor 1 (EP1) is given as 20x*.
Turning to treprostinil diacetate [Prodrug LXXII], the Half-life in series [1] (1 μM, 37° C.) was >2 h; in series [2] (1 μM, 37° C.), >2 h; in series [3] (1 μM, 37° C.), >2 h. The “Percent Remaining 0 min” value worked out at 100% in series [1] (1 μM, 37° C., 0 min); 100% in series [2] (1 μM, 37° C., 0 min); 100% in series [3] (1 μM, 37° C., 0 min). Further, the “Percent Remaining 15 min” value in series [1] (1 μM, 37° C., 15 min) worked out at 106%; in series [2] (1 μM, 37° C., 15 min), 107%; in series [3] (1 μM, 37° C., 15 min), 96.7%. Also, the “Percent Remaining 60 min” value in series [1] (1 μM, 37° C., 60 min) is on record as 102%; in series [2] (1 μM, 37° C., 60 min) it was 83.6%; in series [3] (1 μM, 37° C., 60 min), 107%. Besides, the “Percent Remaining 120 min” value turned out to be 86.5% in series [1] (1 μM, 37° C., 120 min); 79.7% in series [2] (1 μM, 37° C., 120 min); 82.9% in series [3] (1 μM, 37° C., 120 min). Also, the “Formation of Treprostinil, Concentration 0 min” value in series [1] (prodrug dosed 1 μM, 0 min) is 0 µM; in series [2] (prodrug dosed 1 μM, 0 min) it was 0 µM; in series [3] (prodrug dosed 1 μM, 0 min) it was 0 µM. For the same molecule, the “Formation of Treprostinil, Concentration 15 min” value was determined as 0 µM in series [1] (prodrug dosed 1 μM, 15 min); 0 µM in series [2] (prodrug dosed 1 μM, 15 min); 0 µM in series [3] (prodrug dosed 1 μM, 15 min). Moreover, the “Formation of Treprostinil, Concentration 30 min” value in series [1] (prodrug dosed 1 μM, 30 min) is 0 µM; in series [2] (prodrug dosed 1 μM, 30 min), 0 µM; in series [3] (prodrug dosed 1 μM, 30 min), 0 µM. Besides, the “Formation of Treprostinil, Concentration 60 min” value in series [1] (prodrug dosed 1 μM, 60 min) was 0 µM; in series [2] (prodrug dosed 1 μM, 60 min) it was 0.00595 µM; in series [3] (prodrug dosed 1 μM, 60 min), 0 µM. Further, the “Formation of Treprostinil, Concentration 120 min” value in series [1] (prodrug dosed 1 μM, 120 min) is 0 µM; in series [2] (prodrug dosed 1 μM, 120 min), 0.0151 µM; in series [3] (prodrug dosed 1 μM, 120 min), 0 µM. Further, the “Hydrolysis to treprostinil, % Area, t = 1 week” value in series [4] (pH 6, 40 C.) is 0.00 % Area; in series [4] (pH 7, 40 C.), 0.00 % Area; in series [4] (pH 8, 40 C.) it was 0.00 % Area. Moreover, the “Hydrolysis to treprostinil, % Area, t = 2 weeks” value is recorded as 0.00 % Area in series [4] (pH 6, 40 C.); 0.00 % Area in series [4] (pH 7, 40 C.); 0.00 % Area in series [4] (pH 8, 40 C.). The “Hydrolysis to treprostinil, % Area, t = 3 weeks” value is on record as 0.00 % Area in series [4] (pH 6, 40 C.); 0.00 % Area in series [4] (pH 7, 40 C.); 0.00 % Area in series [4] (pH 8, 40 C.). The AUC in series [5] came out at 10.02 µmol·min/L.
For the molecule `CCCCCC(CCC1C(O)CC2Cc3c(cccc3OCC(=O)O)CC21)OC(=O)CC` (stereo not drawn) [Prodrug LV], the “EP1 Relative to Tre” value at PGE2 receptor 1 (EP1) is recorded as 122x*.

Values taken from US12491170B2, “Stable treprostinil prodrugs” (United Therapeutics Corporation, priority 2020, dated 2025).
